In this test the target is T1, glucocerebrosidase (Gcase) (Homo sapiens, UniProt P04062).
T1 construct: micellar solution containing 10 nM GCase and 100 nM saposin C
T1 sequence (P04062 40-536): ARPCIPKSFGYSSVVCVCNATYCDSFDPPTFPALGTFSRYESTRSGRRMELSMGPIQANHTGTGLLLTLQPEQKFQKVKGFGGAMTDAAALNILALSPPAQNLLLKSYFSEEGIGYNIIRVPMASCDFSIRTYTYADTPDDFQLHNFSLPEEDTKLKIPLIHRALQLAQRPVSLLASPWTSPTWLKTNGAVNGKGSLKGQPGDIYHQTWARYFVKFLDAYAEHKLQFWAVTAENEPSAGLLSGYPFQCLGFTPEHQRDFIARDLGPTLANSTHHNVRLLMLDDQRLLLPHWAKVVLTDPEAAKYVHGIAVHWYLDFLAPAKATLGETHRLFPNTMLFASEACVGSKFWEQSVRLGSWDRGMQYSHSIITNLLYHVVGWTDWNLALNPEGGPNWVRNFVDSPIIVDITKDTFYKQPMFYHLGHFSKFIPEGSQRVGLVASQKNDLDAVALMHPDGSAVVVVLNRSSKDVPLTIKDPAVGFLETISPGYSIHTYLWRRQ
The test can be described thus: Glucocerebrosidase (Gcase) activation assay, 4-methylumbelliferyl-beta-D-glucopyranoside substrate, with saposin C. In kind it is biochemical. Conditions: 0.25 h; for activation at 0.1 µM: read-out: Percent Gcase Activation 0.1 μM Test Compound; for activation at 1 µM: read-out: Percent Gcase Activation 1 μM Test Compound. Here is the method: The ability of exemplary compounds to activate glucocerebrosidase (Gcase) was measured.
A 484 μL aliquot of a 1.0 mg/mL solution of phosphatidylserine (PS) (Sigma P7769) in chloroform was evaporated under a stream of nitrogen for 1 hour. The lipid film was dissolved over 4 minutes of vigorous vortexing in 40 mL of 176 mM K2HPO4/50 mM citric acid (pH 4.7) containing 7.5 μL of triton X-100, resulting in a mixed micellar preparation with a composition of 0.32 mM triton and 0.37 mol % PS. 4-Methylumbelliferyl-beta-D-glucopyranoside (ACROS-337025000) was dissolved in the micellar solution to a final concentration of 2 mM for use as the reaction substrate.
Test compounds were diluted to the desired concentrations with dimethylsulfoxide (DMSO) from 10 mM stocks, and 0.41 μL of the DMSO compound mixture was added to 100 μL of micellar solution containing 10 nM GCase and 100 nM saposin C (Enzo ALX-201-262-C050). Pre-incubation was allowed to occur for 30 minutes at room temperature, after which the reaction was initiated by combining 25 μL of substrate solution with 25 μL of compound/GCase/saposin mixture. The reaction proceeded for 15 minutes at room temperature and was stopped by adding 150 μL of 1M glycine, pH 12.5. The endpoint of the reaction was monitored by measuring fluorescence intensity (excitation: 365 nm; emission: 440 nm) on a SpectraMax i3 instrument (Molecular Devices). Test compounds were screened at 1.0 and 0.1 μM final concentration, and subsequent 8-point dose response curves were obtained using 3-fold dilutions from a maximum final concentration of 5 μM.
The symbol “+” indicates less than 5% Gcase activation; the symbol “++” indicates Gcase activation in the range of 5% up to 20%; and the symbol “+++” indicates Gcase activation greater than 20%.

SMILES strings stand for the structures.

In the case of `Cc1cc(-c2ccc3ocnc3c2)nn2c(C(=O)N[C@H](C3CC3)C(F)(F)F)cnc12`, the activation at 0.1 µM was over 20% and the activation at 1 µM was over 20%.

On to `Cc1cc(-c2ccc3ocnc3c2)nn2c(C(=O)N[C@@H](C3CC3)C(F)(F)F)cnc12`, for which the activation at 0.1 µM is over 20% and the activation at 1 µM is over 20%.

As for `Cc1cc(-c2ccc3c(c2)ncn3C)nn2c(C(=O)N[C@@H](C3CC3)C(F)(F)F)cnc12`, the activation at 0.1 µM fell in the range of 5 to 20% and the activation at 1 µM was over 20%.

With `Cc1cncc(-c2cc(C)c3ncc(C(=O)N[C@H](C4CC4)C(F)(F)F)n3n2)c1`, the activation at 0.1 µM was in the range of 5 to 20% and the activation at 1 µM was over 20%.

For the molecule `Cc1cncc(-c2cc(C)c3ncc(C(=O)N[C@@H](C4CC4)C(F)(F)F)n3n2)c1`, the activation at 0.1 µM is under 5% and the activation at 1 µM was over 20%.

Take `COc1cncc(-c2cc(C)c3ncc(C(=O)N[C@H](C4CC4)C(F)(F)F)n3n2)c1`: the activation at 0.1 µM was in the range of 5 to 20% and the activation at 1 µM is over 20%.

Take `COc1cncc(-c2cc(C)c3ncc(C(=O)N[C@@H](C4CC4)C(F)(F)F)n3n2)c1`: the activation at 0.1 µM lay in the range of 5 to 20% and the activation at 1 µM was over 20%.

On to `C#CC(NC(=O)c1ncc2c(C)cc(-c3cccc(F)c3)nn12)C(F)(F)F` (stereo not shown) [2-(3-Fluorophenyl)-4-methyl-N-(1,1,1-trifluorobut-3-yn-2-yl)imidazo[1,5-b]pyridazine-7-carboxamide], for which the activation at 0.1 µM was over 20% and the activation at 1 µM was over 20%.

Take `Cc1cc(C)c2occ(C(=O)NC3CCCc4ccccc43)c2n1` (stereo not shown) [5,7-Dimethyl-N-(1,2,3,4-tetrahydronaphthalen-1-yl)furo[3,2-b]pyridine-3-carboxamide]: the activation at 0.1 µM was over 20% and the activation at 1 µM was over 20%.

In the case of `Cc1cc(C)c2snc(C(=O)NC3CCCc4ccccc43)c2n1` (stereo not shown) [5,7-Dimethyl-N-(1,2,3,4-tetrahydronaphthalen-1-yl)isothiazolo[4,5-b]pyridine-3-carboxamide], the activation at 0.1 µM was over 20% and the activation at 1 µM was over 20%.

For `Cc1cc(C)c2onc(C(=O)NC3CCCc4ccccc43)c2n1` (stereo not shown) [5,7-Dimethyl-N-(1,2,3,4-tetrahydronaphthalen-1-yl)isoxazolo[4,5-b]pyridine-3-carboxamide], the activation at 0.1 µM was 5 to 20% and the activation at 1 µM was over 20%.

With `CCC(NC(=O)c1coc2c(C)cc(C)nc12)c1ccccc1` (stereo not shown) [5,7-Dimethyl-N-(1-phenylpropyl)furo[3,2-b]pyridine-3-carboxamide], the activation at 0.1 µM was over 20% and the activation at 1 µM is over 20%.

Regarding `CCC(NC(=O)c1nsc2c(C)cc(C)nc12)c1ccccc1` (stereo not shown) [5,7-Dimethyl-N-(1-phenylpropyl)isothiazolo[4,5-b]pyridine-3-carboxamide], the activation at 0.1 µM fell in the range of 5 to 20% and the activation at 1 µM is over 20%.

As to `CCC(NC(=O)c1noc2c(C)cc(C)nc12)c1ccccc1` (stereo not shown) [5,7-Dimethyl-N-(1-phenylpropyl)isoxazolo[4,5-b]pyridine-3-carboxamide], the activation at 0.1 µM lay in the range of 5 to 20% and the activation at 1 µM was over 20%.

In the case of `CCCCCO[C@H]1CC[C@H](NC(=O)c2coc3c(C)cc(C)nc23)CC1` [5,7-Dimethyl-N-((1R,4R)-4-(pentyloxy)cyclohexyl)furo[3,2-b]pyridine-3-carboxamide], the activation at 0.1 µM fell in the range of 5 to 20% and the activation at 1 µM is over 20%.

On to `CCCCCO[C@H]1CC[C@H](NC(=O)c2nsc3c(C)cc(C)nc23)CC1` [5,7-Dimethyl-N-((1R,4R)-4-(pentyloxy)cyclohexyl)isothiazolo[4,5-b]pyridine-3-carboxamide], for which the activation at 0.1 µM was over 20% and the activation at 1 µM was over 20%.

In the case of `CCCCCO[C@H]1CC[C@H](NC(=O)c2noc3c(C)cc(C)nc23)CC1` [5,7-Dimethyl-N-((1R,4R)-4-(pentyloxy)cyclohexyl)isoxazolo[4,5-b]pyridine-3-carboxamide], the activation at 0.1 µM fell in the range of 5 to 20% and the activation at 1 µM is over 20%.

As to `Cc1ccc(-c2cc(C)c3ncc(C(=O)N[C@H](C4CC4)C(F)(F)F)n3n2)cn1` [(R)-6-(6-Methylpyridin-3-yl)-N-(1-cyclopropyl-2,2,2-trifluoroethyl)-8-methylimidazo[1,2-b]pyridazine-3-carboxamide], the activation at 0.1 µM is 5 to 20% and the activation at 1 µM is over 20%.

For `Cc1cc(-c2cccc(F)c2)nn2c(C(=O)N[C@H](C3CC3)C(F)(F)F)ncc12` [(R)—N-(1-Cyclopropyl-2,2,2-trifluoroethyl)-2-(3-fluorophenyl)-4-methylimidazo[1,5-b]pyridazine-7-carboxamide], the activation at 0.1 µM was over 20% and the activation at 1 µM is over 20%.

`Cc1cc(-c2ccc3ncn(C)c3c2)nn2c(C(=O)N[C@H](C3CC3)C(F)(F)F)cnc12` [(R)—N-(1-Cyclopropyl-2,2,2-trifluoroethyl)-8-methyl-6-(1-methyl-1H-benzo[d]imidazol-6-yl)imidazo[1,2-b]pyridazine-3-carboxamide]: the activation at 0.1 µM is 5 to 20% and the activation at 1 µM was over 20%.

In the case of `Cc1cc(-c2ccc(F)cc2C#N)nn2c(C(=O)N[C@@H](C3CC3)C(F)(F)F)ncc12` [(S)-2-(2-Cyano-4-fluorophenyl)-N-(1-cyclopropyl-2,2,2-trifluoroethyl)-4-methylimidazo[1,5-b]pyridazine-7-carboxamide], the activation at 0.1 µM lay within 5 to 20% and the activation at 1 µM is over 20%.

In the case of `Cc1cc(-c2ccc(F)cc2C#N)nn2c(C(=O)N[C@@H](C)C3CC3)ncc12` [(S)-2-(2-Cyano-4-fluorophenyl)-N-(1-cyclopropylethyl)-4-methylimidazo[1,5-b]pyridazine-7-carboxamide], the activation at 0.1 µM fell in the range of 5 to 20% and the activation at 1 µM was over 20%.

Consider `Cc1cc(-c2cncc(Cl)c2)nn2c(C(=O)N[C@@H](C3CC3)C(F)(F)F)ncc12` [(S)-2-(5-Chloropyridin-3-yl)-N-(1-cyclopropyl-2,2,2-trifluoroethyl)-4-methylimidazo[1,5-b]pyridazine-7-carboxamide], for which the activation at 0.1 µM is 5 to 20% and the activation at 1 µM was over 20%.

Regarding `Cc1cc(-c2cccc(F)c2C#N)nn2c(C(=O)N[C@@H](C)C(F)(F)F)cnc12` [(S)-6-(2-Cyano-3-fluorophenyl)-8-methyl-N-(1,1,1-trifluoropropan-2-yl)imidazo[1,2-b]pyridazine-3-carboxamide], the activation at 0.1 µM fell in the range of 5 to 20% and the activation at 1 µM was over 20%.

Consider `Cc1cc(-c2cccc(F)c2C#N)nn2c(C(=O)N[C@@H](C)C3CC3)cnc12` [(S)-6-(2-Cyano-3-fluorophenyl)-N-(1-cyclopropylethyl)-8-methylimidazo[1,2-b]pyridazine-3-carboxamide], for which the activation at 0.1 µM is over 20% and the activation at 1 µM is over 20%.

Consider `Cc1cc(-c2cc(F)ccc2C#N)nn2c(C(=O)N[C@@H](C)C(F)(F)F)cnc12` [(S)-6-(2-Cyano-5-fluorophenyl)-8-methyl-N-(1,1,1-trifluoropropan-2-yl)imidazo[1,2-b]pyridazine-3-carboxamide], for which the activation at 0.1 µM was 5 to 20% and the activation at 1 µM was over 20%.

With `Cc1cc(-c2cc(F)ccc2C#N)nn2c(C(=O)N[C@@H](C)C3CC3)cnc12` [(S)-6-(2-Cyano-5-fluorophenyl)-N-(1-cyclopropylethyl)-8-methylimidazo[1,2-b]pyridazine-3-carboxamide], the activation at 0.1 µM was 5 to 20% and the activation at 1 µM was over 20%.

`Cc1cc(-c2c(F)cccc2C#N)nn2c(C(=O)N[C@@H](C)C(F)(F)F)cnc12` [(S)-6-(2-Cyano-6-fluorophenyl)-8-methyl-N-(1,1,1-trifluoropropan-2-yl)imidazo[1,2-b]pyridazine-3-carboxamide]: the activation at 0.1 µM was in the range of 5 to 20% and the activation at 1 µM was over 20%.

As for `Cc1cc(C#N)c(-c2cc(C)c3ncc(C(=O)N[C@@H](C)C4CC4)n3n2)o1` [(S)-6-(3-Cyano-5-methylfuran-2-yl)-N-(1-cyclopropylethyl)-8-methylimidazo[1,2-b]pyridazine-3-carboxamide], the activation at 0.1 µM was over 20% and the activation at 1 µM is over 20%.

These data come from patent US11168087B2, “Substituted imidazo[1,2-b]pyridazines, substituted imidazo[1,5-b]pyridazines, related compounds, and their use in the treatment of medical disorders” (BIAL—R&D Investments, S.A., priority 2016, dated 2021).
